Values of other authors as cited in US20100040600A1, “Agents for Promoting the Growth of Hematopoietic Stem Cells” (CHUGAI SEIYAKU KABUSHIKI KAISHA, priority 2006, published 2010).
pEC50: −log10 of the molar value. Numbered stars: 1 amine (or outer) side, 2 acyl side, 3 side chain; on linkers, the order of the positions; unused ones are H or OH. Bridge positions count the residues as written; N and C are the ends. Square brackets hold non-standard residues; d marks the D form. Peptide text beside a SMILES is read from it. I, II: the chains in the order shown. 2Nal = N[CH](Cc1ccc2ccccc2c1)C(=O)O; X1 = NC(N)NCCCC(N[*:1])C(=O)[*:2]; NMeI = CC[CH](C)[CH](NC)C(=O)O; Sar = CNCC(=O)O

Key:
Hu BM CD34 = conditions: in vitro activity; read-out: Hu BM CD34 differentiation assay: EC50; cited from earlier work
[1] = cited from earlier work
[2] = molecular target: T1, hu c-mpl transmembrane domain (Homo sapiens, UniProt P40238); conditions: cited from earlier work
T1 sequence (P40238 26-635): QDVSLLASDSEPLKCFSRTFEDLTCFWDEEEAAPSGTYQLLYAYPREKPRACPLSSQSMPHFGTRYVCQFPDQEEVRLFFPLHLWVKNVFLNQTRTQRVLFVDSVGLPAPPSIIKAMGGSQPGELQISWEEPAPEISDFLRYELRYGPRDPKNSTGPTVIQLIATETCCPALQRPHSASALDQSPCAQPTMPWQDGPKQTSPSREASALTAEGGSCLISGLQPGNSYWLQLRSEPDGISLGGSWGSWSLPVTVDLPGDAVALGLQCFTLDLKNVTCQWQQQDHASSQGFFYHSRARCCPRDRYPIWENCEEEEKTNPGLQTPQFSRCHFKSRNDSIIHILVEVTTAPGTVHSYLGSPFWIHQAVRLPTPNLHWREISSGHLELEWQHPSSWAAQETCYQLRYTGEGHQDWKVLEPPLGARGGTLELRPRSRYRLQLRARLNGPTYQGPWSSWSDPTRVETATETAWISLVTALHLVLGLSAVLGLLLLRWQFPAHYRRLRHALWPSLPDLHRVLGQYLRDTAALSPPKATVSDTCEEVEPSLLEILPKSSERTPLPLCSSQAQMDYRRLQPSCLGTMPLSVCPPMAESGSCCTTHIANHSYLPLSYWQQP

c-mpl [3] = molecular target: T2, c-mpl (Homo sapiens, UniProt P40238); conditions: cited from earlier work
T2 sequence (P40238 26-635): T1 sequence (P40238 26-635)

c-mpl [4] = conditions: cited from earlier work
c-mpl [5] = conditions: cited from earlier work; remark: listed apart in the source
c-mpl [6] = molecular target: T3, c-mpl (Mus musculus, UniProt Q08351); conditions: cited from earlier work
T3 sequence (Q08351 26-625): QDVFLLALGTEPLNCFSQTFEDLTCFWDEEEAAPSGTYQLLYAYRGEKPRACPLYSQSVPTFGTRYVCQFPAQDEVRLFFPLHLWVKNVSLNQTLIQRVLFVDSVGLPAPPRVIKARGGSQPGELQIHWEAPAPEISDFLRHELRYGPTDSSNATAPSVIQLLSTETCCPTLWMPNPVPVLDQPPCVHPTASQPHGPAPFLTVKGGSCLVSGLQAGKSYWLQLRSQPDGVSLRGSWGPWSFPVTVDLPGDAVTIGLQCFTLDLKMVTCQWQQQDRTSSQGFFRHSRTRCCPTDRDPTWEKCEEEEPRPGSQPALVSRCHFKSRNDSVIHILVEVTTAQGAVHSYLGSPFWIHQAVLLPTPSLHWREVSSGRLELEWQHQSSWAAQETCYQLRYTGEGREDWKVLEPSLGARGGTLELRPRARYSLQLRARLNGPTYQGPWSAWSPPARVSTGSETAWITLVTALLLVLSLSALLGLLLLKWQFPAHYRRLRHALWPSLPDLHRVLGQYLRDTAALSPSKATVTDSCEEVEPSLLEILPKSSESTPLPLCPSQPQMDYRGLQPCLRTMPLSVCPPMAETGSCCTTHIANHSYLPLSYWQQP

c-mpl [7] = conditions: cited from earlier work; remark: listed apart in the source
mouse receptors = molecular target: T4, mouse receptors (Mus musculus, UniProt Q08351); conditions: cited from earlier work
T4 sequence (Q08351 26-625): T3 sequence (Q08351 26-625)

rat receptors = conditions: cited from earlier work
dog receptors = conditions: cited from earlier work

Row | SMILES | pEC50 (Hu BM CD34) | T1/2 [1] | Binding site [2] | species specificity (c-mpl [3]) | cross-reactivity: cynomolgus macaques (c-mpl [4]) | cross-reactivity: cat (c-mpl [5]) | cross-reactivity: mouse (c-mpl [6]) | cross-reactivity: chimpanzee (c-mpl [7]) | cross-reactivity to mouse receptors (mouse receptors) | cross-reactivity to rat receptors (rat receptors) | cross-reactivity to dog receptors (dog receptors)
1 | CC1=NN(c2ccc(C)c(C)c2)C(=O)/C1=N\Nc1cccc(-c2cccc(C(=O)O)c2)c1O [SB297115/Eltrombopag] | ~7.00 | T1/2 = 12 hr | Binding site: a hu c-mpl transmembrane domain (His499, Thr496) | High species specificity | No cross-reactivity: cynomolgus macaques, cat, mouse, etc. | No cross-reactivity: cynomolgus macaques, cat, mouse, etc. | No cross-reactivity: cynomolgus macaques, cat, mouse, etc. | Cross-reactivity: chimpanzee |  |  | 
2 | CCC(C)C(N)C(=O)NC(CCC(=O)O)C(=O)NCC(=O)N1CCCC1C(=O)NC(C(=O)NC(CC(C)C)C(=O)NC(CCCNC(=N)N)C(=O)NC(CCC(N)=O)C(=O)NC(Cc1ccc2ccccc2c1)C(=O)NC(CC(C)C)C(=O)NC(C)C(=O)NC(C)C(=O)NC(CCCNC(=N)N)C(=O)N(C)CC(=O)NC(CCCCNC(=O)CN(C)C(=O)C(CCCNC(N)N)NC(=O)C(C)NC(=O)C(C)NC(=O)C(CC(C)C)NC(=O)C(Cc1ccc2ccccc2c1)NC(=O)C(CCC(N)=O)NC(=O)C(CCCNC(=N)N)NC(=O)C(CC(C)C)NC(=O)C(NC(=O)C1CCCN1C(=O)CNC(=O)C(CCC(=O)O)NC(=O)C(NC)C(C)CC)C(C)O)C(N)=O)C(C)O (centres unmarked) [peg-TPOmp] (I: H-IEGPTLRQ[2Nal]LAAR[Sar]K-NH2 / II: H-[NMeI]EGPTLRQ[2Nal]LAA[X1][Sar]; amide I:15-II:C; configuration not given here) |  |  |  |  |  |  |  |  | Cross-reactive to mouse, rat, and dog receptors | Cross-reactive to mouse, rat, and dog receptors | Cross-reactive to mouse, rat, and dog receptors
